Data reported in US10562842B2, “Use of polyaminoisoprenyl derivatives in antibiotic or antiseptic treatment” (UNIVERSITE D'AIX-MARSEILLE, priority 2011, dated 2020).
Peptide text beside a SMILES is read from it. * marks the point of attachment. βNA = c1ccc2cc(N*)ccc2c1

Experiments:
[1] = system: Enterobacter aerogenes MDR Ea289; assay: MIC of antibiotics ± test compound (MIC ratio), micro-broth dilution; format: cell-based; settings: for Effective concentration (mM) for a MIC ratio of chloramphenicol ≥ 8 on Ea289 / MIC ratio (*) on Ea289 Chl: chloramphenicol
Method: The process consists of treating the MDR bacteria with the compounds of the invention in the presence of antibiotics.
(§1) Susceptibilities to antibiotics and compounds were determined in microplates by broth dilution method, as previously described. Minimal Inhibitory Concentrations (MICs) were determined with an inoculum of 10^6 CFU in 200 μL of MH broth containing two-fold serial dilutions of each drug. […] All MIC determinations were repeated at least three times in independent experiments.
The MICs of chloramphenicol±test compounds (MIC/4) were determined by the micro-broth dilution method (9). All MIC determinations were repeated at least three times in independent experiments. The MIC ratio corresponds to the ratio of the MIC of an antibiotic alone to the MIC of the same antibiotic in the presence of the tested compound (at MIC/4).
The compounds listed in Table 2 were tested for their ability to decrease the chloramphenicol MIC of Ea289, an Enterobacter aerogenes MDR strain (1). Each compound was first tested at MIC/4. […] All MIC determinations were repeated at least three times in independent experiments.
(§2) For reminder, the MIC ratio corresponds to the ratio of the MIC of the assessed antibiotic alone to the MIC of the same antibiotic in the presence of the tested compound (at MIC/4).

[2] = Tolerance in mice, intraperitoneal route; format: in vivo; settings: for tissue anomaly (liver, lung, kidney, intestine): day 2, Compound 5 8.8 mg/kg, 8 1.46 mg/kg, 11 0.45 mg/kg, 14 0.35 mg/kg, 12 6.3 mg/kg
Method: Mice were administered with increasing doses of test compounds by intraperitoneal route.
The mice were sacrificed on day 2 after the injection of the test compound and autopsied. No morphological anomaly was observed. Liver, lung, kidney and intestine of each mouse were fixed and analysed.

[3] = system: Salmonella Thyphimurium MDR BN10055; assay: MIC of antibiotics ± test compound (MIC ratio), micro-broth dilution; format: cell-based, Salmonella enterica serovar Typhimurium; settings: compound at MIC/4; for MIC ratio (*) on BN10055 Chl: chloramphenicol; for MIC ratio (*) on BN10055 Dox: doxycycline; for MIC ratio (*) on BN10055 Nal: nalidixic acid
Method: (§3) The Enterobacter aerogenes Ea289 strain is a Kans derivative of the MDR clinical isolate Ea27, the acrB mutant, EaEP294, was constructed from Ea289. Multidrug-resistant Salmonella enterica serovar Typhimurium DT104 strains (BN10055) was isolated from cattle in France, the isogenic acrB derivative mutant, BN10055ΔacrB, was constructed from BN10055. Strains were maintained at −80° C. in 25% (v/v) glycerol for cryoprotection. Bacteria were routinely grown in Mueller-Hinton (MH) broth at 37° C.
as §1
(§4) […] All MIC determinations were repeated at least three times in independent experiments. The MIC ratio corresponds to the ratio of the MIC of an antibiotic alone to the MIC of the same antibiotic in the presence of the tested compound (at MIC/4).
as §2

BN10055ΔacrB [4] = assay: as above; format: cell-based, Salmonella enterica serovar Typhimurium; settings: compound at MIC/4, Set 1
Method: as §3, §1, §4, §2

[5] = system: Enterobacter aerogenes MDR Ea289; assay: as above; format: cell-based; settings: compound at MIC/4, Set 2; for MIC ratio (*) on Ea289 Dox: doxycycline; for MIC ratio (*) on Ea289 Nal: nalidixic acid
CHO cells = assay: Toxicity on CHO cultured cells; format: cell-based; settings: killing of 50% of the CHO cells after 24 hours of incubation
Method: The toxicity of each compound was determined on CHO cultured cells. Incubation of CHO cells was performed with serial dilution of compounds. The compounds are either solubilized in DMSO or in PBS. The IC50 corresponds to the concentration of compounds leading to a killing of 50% of the CHO cells after 24 hours of incubation.

Ea289ΔacrB (Ea294) = assay: MIC of antibiotics ± test compound (MIC ratio), micro-broth dilution; format: cell-based, Enterobacter aerogenes; settings: compound at MIC/4, Set 1
Method: as §3, §1, §4, §2

Ea294 = assay: MIC by broth dilution (intrinsic MIC); format: cell-based, Enterobacter aerogenes; settings: antibiotic alone
Method: as §1

Ea289 = assay: MIC by broth dilution (intrinsic MIC); format: cell-based, Enterobacter aerogenes; settings: antibiotic alone
Method: as §1

BN10055 = assay: MIC by broth dilution (intrinsic MIC); format: cell-based, Salmonella enterica; settings: antibiotic alone
Method: as §1

BN10055ΔacrB [6] = assay: MIC by broth dilution (intrinsic MIC); format: cell-based, Salmonella enterica; settings: antibiotic alone
Method: as §1

E. aerogenes ATCC13048 = assay: Susceptibility of Gram-negative strains to macrolides in the presence of test compound; format: cell-based, Enterobacter aerogenes
[7] = system: S. enterica Thyphimurium ATCC13311; assay: as above; format: cell-based, Salmonella enterica Typhimurium; design: key to the marks not given beside the values
A. Baumannii ATCC19606 = assay: as above; format: cell-based, Acinetobacter baumannii; design: Susceptibility to Clarithomycin, A. Baumannii ATCC19606: key to the marks not given beside the values
E. Coli AG100 = assay: as above; format: cell-based, Escherichia coli; design: Susceptibility to Clarithomycin, E. Coli AG100 / Susceptibility to Erythromycin, E. Coli AG100: key to the marks not given beside the values

CC(C)=CCC/C(C)=C/CC/C(C)=C/CNCCCNCCCCNCCCN [Compound 8, {3-[4-(3-Amino-propylamino)-butylamino]-propyl}-(3,7,11-trimethyl-dodeca-2,6,10-trienyl)-amine]
Effective concentration (mM) for a MIC ratio of chloramphenicol ≥ 8 on Ea289 [1]: 0.0078 mM | efficient concentration, times lower than the control PAβN ([1]; chloramphenicol MIC ratio of 8 on Ea289): about 4.9 times | activity, effective concentration compared with PAβN to reach a MIC ratio of 8 ([1]; chloramphenicol on Ea289): strong activity | MIC ratio (*) on Ea289 Chl ([1]; compound at MIC/4, Set 1): 8-16 | MIC ratio (*) on Ea289 Chl ([1]; compound at MIC/4, Set 2): 8-16 | MIC ratio(*) on Ea289 Ery ([1]; erythromycin, compound at MIC/4, Set 1): 32 | MIC ratio (*) on Ea289 Nal ([1]; nalidixic acid, compound at MIC/4, Set 1): >16 | tissue anomaly (liver, lung, kidney, intestine) [2]: no significant tissue anomaly | MIC ratio (*) on BN10055 Chl ([3]; Set 1): >16 | MIC ratio (*) on BN10055 Chl ([3]; Set 2): 16-32 | MIC ratio (*) on BN10055 Dox ([3]; Set 2): 8 | MIC ratio(*) on BN10055 Ery ([3]; erythromycin, Set 1): 8 | MIC ratio (*) on BN10055 Nal ([3]; Set 1): 64 | MIC ratio (*) on BN10055 Nal ([3]; Set 2): 64 | MIC ratio(*) on BN10055ΔacrB Chl (BN10055ΔacrB [4]; chloramphenicol): 4 | MIC ratio(*) on BN10055ΔacrB Ery (BN10055ΔacrB [4]; erythromycin): 8 | MIC ratio(*) on BN10055ΔacrB Nal (BN10055ΔacrB [4]; nalidixic acid): 4 | MIC ratio (*) on Ea289 Dox [5]: 16 | MIC ratio (*) on Ea289 Nal [5]: 16-32 | IC50 (CHO cells; Cricetulus griseus): 0.726 mM | MIC ratio(*) on Ea289ΔacrB Chl (Ea289ΔacrB (Ea294); chloramphenicol): 2 | MIC ratio(*) on Ea289ΔacrB Ery (Ea289ΔacrB (Ea294); erythromycin): 16 | MIC ratio(*) on Ea289ΔacrB Nal (Ea289ΔacrB (Ea294); nalidixic acid): 4

O=C(N[C@H](CO)[C@H](O)c1ccc([N+](=O)[O-])cc1)C(Cl)Cl [Chloramphenicol, reference compound]
Chl-MIC: Chloramphenicol Minimal Inhibitory Concentration, Ea294 (Ea294): 64 µg/mL | Chl-MIC: Chloramphenicol Minimal Inhibitory Concentration, Ea289 (Ea289): 1024 µg/mL | Chl-MIC: Chloramphenicol Minimal Inhibitory Concentration, BN10055 (BN10055): 256 µg/mL | Chl-MIC: Chloramphenicol Minimal Inhibitory Concentration, BN10055ΔacrB (BN10055ΔacrB [6]): 16 µg/mL

CC(C)=CCC/C(C)=C/C(=O)NCCCN(CCCN)CCCN [Compound 5]
tissue observation at the highest dose ([2]; 35.25 mg/kg): slight vascular modifications | tissue anomaly (liver, lung, kidney, intestine) [2]: no significant tissue anomaly

CC(C)=CCC/C(C)=C/CNCCCN [Compound 12, (3,7-Dimethyl-octa-2,6-dienyl)-propane-1,3-diamine]
MIC ratio (*) on Ea289 Chl ([1]; compound at MIC/4, Set 2): 16 | tissue anomaly (liver, lung, kidney, intestine) [2]: no significant tissue anomaly | MIC ratio (*) on BN10055 Chl ([3]; Set 2): 8 | MIC ratio (*) on BN10055 Dox ([3]; Set 2): 16 | MIC ratio (*) on BN10055 Nal ([3]; Set 2): 32 | MIC ratio (*) on Ea289 Dox [5]: 16 | MIC ratio (*) on Ea289 Nal [5]: 4-8

N=C(N)NCCC[C@H](NC(=O)[C@@H](N)Cc1ccccc1)C(=O)Nc1ccc2ccccc2c1 [PAβN, Phenyl-Arginine β-Naphtylamide] (H-Phe-Arg-βNA)
Susceptibility to Clarithomycin, E. aerogenes ATCC13048 (E. aerogenes ATCC13048): + | Susceptibility to Erythromycin, E. aerogenes ATCC13048 (E. aerogenes ATCC13048): + | Susceptibility to Spiramycin, E. aerogenes ATCC13048 (E. aerogenes ATCC13048): + | Effective concentration (mM) for a MIC ratio of chloramphenicol ≥ 8 on Ea289 [1]: 0.038 mM | Susceptibility to Clarithomycin, S. enterica Thyphimurium ATCC13311 [7]: ++ | Susceptibility to Erythromycin, S. enterica Thyphimurium ATCC13311 [7]: ++ | Susceptibility to Spiramycin, S. enterica Thyphimurium ATCC13311 [7]: ++ | Susceptibility to Clarithomycin, A. Baumannii ATCC19606 (A. Baumannii ATCC19606): ++ | Susceptibility to Erythromycin, A. Baumannii ATCC19606 (A. Baumannii ATCC19606): + | Susceptibility to Spiramycin, A. Baumannii ATCC19606 (A. Baumannii ATCC19606): + | Susceptibility to Clarithomycin, E. Coli AG100 (E. Coli AG100): ++ | Susceptibility to Erythromycin, E. Coli AG100 (E. Coli AG100): ++ | Susceptibility to Spiramycin, E. Coli AG100 (E. Coli AG100): + | IC50 (CHO cells): > 5 mM
